Earlier results in patent publication US20220288054A1, “COMPOSITIONS AND METHODS TO TREAT NON-ALCOHOLIC FATTY LIVER DISEASES (NAFLD)” (Coherus Biosciences, Inc., priority 2019, published 2022).

Assays:
[1] = monotherapy, STELLAR-4 phase 3
diabetic rodents = conditions: administered to diabetic rodents

For `CCCCOCCOc1ccc(-c2ccc3c(c2)/C=C(/C(=O)Nc2ccc([S@@+]([O-])Cc4cncn4CCC)cc2)CCCN3CC(C)C)cc1` [Cenicriviroc], the safety profile (289 patients, 1 year of therapy) is given as “excellent safety profile”, the liver fibrosis improvement (289 patients, after 1 year of therapy) is given as “consistently demonstrated liver fibrosis improvement” and the antifibrotic activity (adult patients with NASH and fibrosis, phase 2b) is given as “provided antifibrotic activity”. The tolerability (adult patients, oral, phase 2b) was “well-tolerated”.

For `Cc1cc(F)c(C(=O)Nc2cccc(-c3nncn3C(C)C)n2)cc1-n1cnc(C2CC2)c1` [selonsertib], the primary endpoint [1] is listed as “failed to meet the primary endpoint”.

B1: FGF21: amino acid sequence shown in FIG. 3 (SEQ ID NO: 3) (protein, listed as Homo sapiens)
chain: MDSDETGFEHSGLWVSVLAGLLLGACQAHPIPDSSPLLQFGGQVRQRYLYTDDAQQTEAHLEIREDGTVGGAADQSPESLLQLKALKPGVIQILGVKTSRFLCQRPDGALYGSLHFDPEACSFRELLLEDGYNVYQSEAHGLPLHLPGNKSPHRDPAPRGPARFLPLPGLPPALPEPPGILAPQPPDVGSSDPLSMVGPSQGRSPSYAS
In the case of B1, the “blood glucose and triglyceride levels” value (diabetic rodents) is given as “lower blood glucose and triglyceride levels” and the glucose uptake (mouse adipocytes) is given as “activates glucose uptake”.
